# According to PMC11671526, “β-caryophyllene sensitizes hepatocellular carcinoma cells to chemotherapeutics and inhibits cell malignancy through targeting MAPK signaling pathway” (Frontiers in Pharmacology, 2024):
# Test system: HepG2 cells
# Test: RNA-seq transcriptome analysis of differentially expressed genes
# Format: cell-based, human
# Settings: BCP vs control HepG2, RNA-seq
# Procedure: The quality and concentration of RNA were examined by MOPS RNA electrophoresis and Eppendorf BioSpectrometer. The transcriptome analysis was performed by BGI-Wuhan China. The RNA-seq dataset of this study is accessible in the Gene Expression Omnibus (GEO) with an access number of GSE276099. The sequence library for each sample was prepared using the BGISEQ-500 platform with a 50-bp single-end (SE50) format. […]2.2.1) was used to align the clean reads to the reference genome and alignment of the clean reads to the reference genes was carried out using Bowtie2 (v2.4.5) ([Langmead and Salzberg, 2012]; [Kim et al., 2015]). Gene expression levels were calculated by RSEM (v1.3.1) ([Li and Dewey, 2011]). Analysis of differential gene expression was performed using edgeR in the Bioconductor software package ([Robinson et al., 2010]). Using a standard protocol, the RNA samples were also examined by reverse transcription and quantitative polymerase chain reaction (RT-qPCR). In brief, for reverse transcription, total RNA (1 μg) and gDNA wiper Mix were incubated at 42°C for 2 min. The samples were immediately incubated with a master mix containing 10 pmol/μL of poly (dT) primers at 37°C for 15 min and 85°C for 5 s. To detect the expression of specific genes by qPCR analysis, gene-specific primers (shown in Supplementary Table S1) were mixed with the ChamQ Universal SYBER qPCR Master Mix and the reaction was conducted using the Roche Lightcycler 480. The GAPDH value was used to normalize the results of each gene. The RNA-seq data of BCP-treated HepG2 cells were screened for DEGs. Gene symbols were turned into Enterz ID using the org.Hs.eg.db Bio-conductor R package. The cluster profiler (v4.6.2) package was used to perform the Kyoto Encyclopedia of Genes and Genomes (KEGG) and Gene Ontology (GO) enrichment analyses ([Wu et al., 2021]). Following the Transcript per million (TPM) data of the dataset, the line chart, and heatmap were plotted using ggplot2 and pheatmap R packages, respectively.
smiles,measurement,value
"C=C1CC/C=C(\C)CC[C@@H]2[C@@H]1CC2(C)C [BCP, β-caryophyllene]",ABCA4 change,Up
same,ABCA4 logFC,1.08
same,ABHD16B change,Down
same,ABHD16B logFC,-0.7624
same,ACCS change,Up
same,ACCS logFC,0.7756
same,ADAT3 change,Down
same,ADAT3 logFC,-0.6489
same,ADGRE1 change,Down
same,ADGRE1 logFC,-1.049
same,ADORA1 change,Down
same,ADORA1 logFC,-0.951
same,ADORA2A change,Down
same,ADORA2A logFC,-0.7747
same,ADRA2C change,Down
same,ADRA2C logFC,-0.8257
same,AGT change,Up
same,AGT logFC,0.6624
same,AKR1C1 change,Down
same,AKR1C1 logFC,-0.9841
same,ALOX12B change,Down
same,ALOX12B logFC,-0.7891
same,ALOXE3 change,Down
same,ALOXE3 logFC,-1.101
same,ANK1 change,Down
same,ANK1 logFC,-0.6258
same,ANK2 change,Up
same,ANK2 logFC,0.6135
same,ANKRD63 change,Down
same,ANKRD63 logFC,-1.109
same,ANO9 change,Up
same,ANO9 logFC,0.6598
same,AOX1 change,Down
same,AOX1 logFC,-0.7887
same,ARHGAP25 change,Down
same,ARHGAP25 logFC,-0.9496
same,ARTN change,Down
same,ARTN logFC,-0.6893
same,B3GNT4 change,Down
same,B3GNT4 logFC,-0.8549
same,BEST1 change,Up
same,BEST1 logFC,0.7297
same,BOC change,Down
same,BOC logFC,-1.001
same,BOLA2B change,Down
same,BOLA2B logFC,-1.579
same,BORCS8-MEF2B change,Up
same,BORCS8-MEF2B logFC,0.7383
same,C4orf50 change,Down
same,C4orf50 logFC,-0.84
same,C7orf31 change,Up
same,C7orf31 logFC,0.8499
same,C14orf132 change,Down
same,C14orf132 logFC,-0.9885
same,C15orf62 change,Down
same,C15orf62 logFC,-0.8151
same,CACNA1D change,Up
same,CACNA1D logFC,0.899
same,CACNA1E change,Down
same,CACNA1E logFC,-0.8241
same,CAMK2N2 change,Down
same,CAMK2N2 logFC,-0.8129
same,CARMIL2 change,Down
same,CARMIL2 logFC,-0.818
same,CDC25C change,Up
same,CDC25C logFC,0.5857
same,CENPE change,Up
same,CENPE logFC,0.6854
same,CERS4 change,Down
same,CERS4 logFC,-0.7861
same,CHST6 change,Down
same,CHST6 logFC,-0.6638
same,CILP2 change,Down
same,CILP2 logFC,-0.9152
same,CLEC7A change,Down
same,CLEC7A logFC,-1.627
same,CLGN change,Up
same,CLGN logFC,0.5838
same,COL9A2 change,Up
same,COL9A2 logFC,0.6974
same,CPAMD8 change,Up
same,CPAMD8 logFC,0.9195
same,CRYBG1 change,Down
same,CRYBG1 logFC,-0.6404
same,CSF1R change,Up
same,CSF1R logFC,1.132
same,CTNNBIP1 change,Up
same,CTNNBIP1 logFC,0.608
same,CYP24A1 change,Up
same,CYP24A1 logFC,0.7733
same,CYP39A1 change,Down
same,CYP39A1 logFC,-0.966
same,D2HGDH change,Up
same,D2HGDH logFC,0.7244
same,DEPTOR change,Down
same,DEPTOR logFC,-0.8053
same,DOK7 change,Up
same,DOK7 logFC,0.6123
same,DPF1 change,Down
same,DPF1 logFC,-0.7852
same,DUSP18 change,Down
same,DUSP18 logFC,-1.0326
same,ELOVL6 change,Down
same,ELOVL6 logFC,-0.6915
same,EN2 change,Down
same,EN2 logFC,-0.8276
same,ENPP1 change,Up
same,ENPP1 logFC,0.6168
same,EPHA7 change,Up
same,EPHA7 logFC,0.6078
same,ERVV-2 change,Up
same,ERVV-2 logFC,0.6706
same,FAAH2 change,Up
same,FAAH2 logFC,0.6861
same,FAM72A change,Up
same,FAM72A logFC,0.7318
same,FAM167B change,Down
same,FAM167B logFC,-1.112
same,FAM222A change,Down
same,FAM222A logFC,-0.6769
same,FAR2 change,Down
same,FAR2 logFC,-0.7201
same,FBXL22 change,Down
same,FBXL22 logFC,-1.204
same,FDXACB1 change,Down
same,FDXACB1 logFC,-1.018
same,FES change,Down
same,FES logFC,-1.129
same,FGF11 change,Down
same,FGF11 logFC,-0.6148
same,FGF12 change,Up
same,FGF12 logFC,0.873
same,FHIT change,Up
same,FHIT logFC,0.955
same,FICD change,Up
same,FICD logFC,0.637
same,FUT3 change,Down
same,FUT3 logFC,-0.9413
same,GBP4 change,Down
same,GBP4 logFC,-1.639
same,GGT2 change,Up
same,GGT2 logFC,0.9035
same,GJD3 change,Down
same,GJD3 logFC,-0.6605
same,GPD1 change,Up
same,GPD1 logFC,0.9345
same,GPR3 change,Down
same,GPR3 logFC,-1.067
same,GPR158 change,Up
same,GPR158 logFC,0.961
same,GRIP2 change,Down
same,GRIP2 logFC,-0.6933
same,H3C6 change,Down
same,H3C6 logFC,-0.6656
same,H4C8 change,Down
same,H4C8 logFC,-0.9939
same,HBA1 change,Down
same,HBA1 logFC,-0.7699
same,HPD change,Up
same,HPD logFC,0.6168
same,HPGD change,Down
same,HPGD logFC,-0.5852
same,IFIT1 change,Down
same,IFIT1 logFC,-0.7944
same,IFIT2 change,Down
same,IFIT2 logFC,-0.7214
same,IL7R change,Down
same,IL7R logFC,-0.8033
same,IMMP2L change,Up
same,IMMP2L logFC,0.6542
same,IQCG change,Up
same,IQCG logFC,0.9618
same,ISYNA1 change,Down
same,ISYNA1 logFC,-1.197
same,JMJD7-PLA2G4B change,Up
same,JMJD7-PLA2G4B logFC,0.8598
same,KCP change,Up
same,KCP logFC,1.479
same,KHDC1 change,Down
same,KHDC1 logFC,-0.6694
same,KRT34 change,Up
same,KRT34 logFC,0.7278
same,LOC100133315 change,Up
same,LOC100133315 logFC,0.7126
same,LOC102724200 change,Up
same,LOC102724200 logFC,1.529
same,LOC102724788 change,Up
same,LOC102724788 logFC,0.903
same,LOC107984638 change,Down
same,LOC107984638 logFC,-1.075
same,LRRC56 change,Down
same,LRRC56 logFC,-0.591
same,LRRK2 change,Down
same,LRRK2 logFC,-0.8118
same,MAST4 change,Down
same,MAST4 logFC,-0.6435
same,MCTP2 change,Up
same,MCTP2 logFC,0.7514
same,MORN4 change,Up
same,MORN4 logFC,0.6216
same,MVB12B change,Up
same,MVB12B logFC,0.6743
same,MXRA8 change,Down
same,MXRA8 logFC,-0.6329
same,MYB change,Down
same,MYB logFC,-0.6747
same,MYH14 change,Up
same,MYH14 logFC,0.8331
same,MYPN change,Up
same,MYPN logFC,0.6564
same,NCF2 change,Down
same,NCF2 logFC,-1.214
same,NEBL change,Up
same,NEBL logFC,0.5931
same,NECAB2 change,Up
same,NECAB2 logFC,0.9799
same,NEIL3 change,Up
same,NEIL3 logFC,0.6475
same,NEK11 change,Up
same,NEK11 logFC,0.7755
same,NFE2 change,Down
same,NFE2 logFC,-0.6303
same,NPHS1 change,Up
same,NPHS1 logFC,1.189
same,NPIPA3 change,Down
same,NPIPA3 logFC,-0.8968
same,NPY4R change,Up
same,NPY4R logFC,0.7533
same,NR5A2 change,Down
same,NR5A2 logFC,-0.6198
same,NR6A1 change,Down
same,NR6A1 logFC,-0.7194
same,NYAP1 change,Down
same,NYAP1 logFC,-0.7161
